Entries after “also recorded” stand apart in the source; their conditions may differ. Where two headings read alike, the source gives them in different places.
Experiments:
[1] = system: Nras(G12D)/MLL-AF9 leukemic cells; assay: Viability of Nras(G12D)/MLL-AF9 leukemic cells cultured with AOA or myriocin; type: cell-based, mouse; settings: day 3 (FIG. 33A, 34A)
human leukemic cells [2] = assay: Viability of human leukemic cell lines cultured with AOA; type: cell-based; settings: human Molm13, Thp1, ml2, Nomo1, Semk2, Kasumi leukemic cells, day 3 (FIG. 34B-34G)
[3] = system: Nras(G12D)/MLL-AF9 leukemia; assay: AML mouse model: sub-lethally irradiated mice transplanted with Nras(G12D)/MLL-AF9 cells, compound treatment; type: in vivo; settings: for animal survival / leukemia disease progression (luciferase signal): daily dosing vs PBS control, isoniazid 90 mg/kg intraperitoneally
Text: PDXK shRNAs were cloned into a doxycycline inducible H2 vector (D9891-25G, Sigma-Aldrich, St. Louis, Mo.). Leukemic cells were infected with viruses encoding shRNAs targeting Renilla luciferase or PDXK, followed by either in vitro culture or transplantation. For in vitro culture experiments, doxycycline was supplemented into culture medium, and the percentage of GFP^+ cells was monitored. For in vivo AML mouse model experiments, the dietary feed of the mice was supplemented with doxycycline, and luciferase expression levels were monitored. For in vivo drug efficacy experiments, leukemic cells were transplanted into sub-lethally irradiated mice. Control PBS or isoniazid (90 mg/kg) was injected 6 hours after transplant and then daily into the transplant containing mice, and luciferase expression levels were monitored. High-performance liquid chromatography-mass spectrometry (HPLC-MS) was performed as previously described in A. M. Intlekofer et al., Nat Chem Biol 13, 494-500 (2017).
For isoniazid injection experiment, Nras(G12D)/MLL-AF9 leukemic cells were collected and resuspended in PBS at a concentration of 5 million/ml. 5-6 weeks old B6-LY5 mice (Charles River Labs, Wilmington Mass.) were sublethally irradiated (450 cGy) and transplanted with 1 million leukemic cells through tail vein injection. PBS or 90 mg/kg isoniazid were intraperitoneally injected daily.
The leukemia disease progress was monitored by in vivo bioluminescent imaging using IVIS Lumina image system (Xenogen) every 3 days. Before imaging, all mice were anesthetized with 2% isoflurane, and anesthesia was also maintained during the image acquisition inside Xenogen dark chamber. 300 mg/kg D-Luciferin (Gold Biotechnology Olivette, Mo.) in PBS at 15 mg/ml was intraperitoneally injected ˜12 minutes before image capturing. The bioluminescence was acquired and quantitatively analyzed by the Living Image software.

human leukemic cells [4] = assay: Proliferation / growth of human leukemic cell lines cultured with compound; type: cell-based; settings: for growth of human AML cells in vitro: indicated leukemic cell lines (FIG. 17C, 18C)
Experimental: The average and STDEV of relative cell proliferation are shown.
(§1) Mouse AML cell lines, human AML cell lines, iMEF cell line and 3T3 cell line were infected with virus encoding Cas9 (Addgene 52962, Watertown Mass.) followed with blastcitidin selection to generate Cas9 cell lines. All viral sgRNA infection experiments were performed on Cas9 cell lines. All viral shRNA infection experiments were performed on cell lines carrying rtTA3. Mouse leukemic cell lines including Nras(G12D)/MLL-AF9, MLL-AF9, Nras(G12D)/IDH, Nras(G12D)/NPM1, and IDH/Flt3 were cultured in RPMI medium supplemented with 10% Fetal Bovine Serum (FBS), L-glutamine, penicillin streptomycin, recombinant mouse SCF, IL-3 and IL-6. Human leukemic cell lines MOLM13, M12, Semk2, THP1, and K562 were cultured in RPMI medium supplemented with 10% FBS, L-glutamine, penicillin, and streptomycin. Vitamin B6 depleted medium (VB6−) was prepared by customized pyridoxin (−) RPMI (Gibco, Gaithersburg, Md.) with 10% dialyzed FBS, L-glutamine, penicillin, and streptomycin. Pyridoxin hydrochloride (Sigma, St Louis Mo.) was added back to VB6(−) medium to make the VB6 (+) medium used for leukemia and MEF culture. Control or gene targeting sgRNAs or shRNAs were delivered by lentivirus. Spin infections were performed at 37° C. and 1500 RPM for 60 minutes. After spin infection, viral supernatants were substituted with leukemic cell culture medium. For compound treatment, isoniazid was added in culture medium at indicated concentrations.
For competition and cell proliferation experiments, mouse or human leukemic cells were infected with viruses encoding sgRNAs or shRNAs. Spin infections were performed at 37 degree and 1500 RPM for 60 minutes. After spin infection, viral supernatants were substituted with leukemic cell culture medium. GFP+ percentage or cell number was monitored during culture using guava flow cytometer. The absolute cell number was measured by using flow cytometry absolute count standard (Bangs Laboratories Inc., Fishers Ind.). The experimental results were analyzed by guavasoft software.

PDXK = target: T1, PDXK (Homo sapiens, UniProt O00764); assay: Intracellular PLP levels (PDXK inhibition) in human Molm13 leukemic cells; type: cell-based; settings: human Molm13 leukemic cells (FIG. 17B, 18B)
T1 construct: endogenous in cells; host or cells: human Molm13 (MOLM13) AML cells
T1 sequence (O00764 1-312): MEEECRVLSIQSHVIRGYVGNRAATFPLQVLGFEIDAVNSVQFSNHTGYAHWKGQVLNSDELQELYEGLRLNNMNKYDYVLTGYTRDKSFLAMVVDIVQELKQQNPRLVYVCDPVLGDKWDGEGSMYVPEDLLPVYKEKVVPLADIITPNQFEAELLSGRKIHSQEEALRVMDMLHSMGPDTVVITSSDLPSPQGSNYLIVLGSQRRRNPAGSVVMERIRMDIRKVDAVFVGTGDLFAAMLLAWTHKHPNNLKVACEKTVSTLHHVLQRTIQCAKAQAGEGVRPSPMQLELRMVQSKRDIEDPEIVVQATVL
Experimental: (§2) LC-MS grade solvents were purchased from Thermo Fisher Scientific (Waltham, Mass.), metabolite standards were purchased from Sigma (St. Louis, Mo.) unless stated otherwise. Nras(G12D)/MLL-AF9 cells infected with viruses encoding Pdxk shRNAs were harvested after 5 days of doxycycline induction. Human MOLM13 cells infected with viruses encoding Pdxk sgRNAs were harvested at day 11 post infection. Nras(G12D)/MLL-AF9 cells or MOLM13 cells were treated with indicated concentrations of isoniazid and harvested after 5 days treatment.
In each case, 2 million cells were collected by centrifugation at 440×g, media was aspirated and 1004 of ice-cold 10% trichloroacetic acid with or without 100 ng/mL d3-pyridoxal (d3-PL), d3-pyridoxine (d3-PN), d3-pyridoxamine (d3-PM), d3-pyridoxal phosphate (d3-PLP) (IsoSciences LLC, Ambler Pa.) was added for metabolite extraction. For experiments involving isoniazid treatment, cells were washed once with PBS to remove residual drug and minimize post-lysis reactions between isoniazid and PLP, which was confirmed by monitoring the d3-PLP internal standard. After overnight incubation at −80° C., samples were vortexed and transferred to 1.7 mL conical eppendorf tubes and centrifuged at 21,000×g for 20 min at 4° C. The supernatant was transferred to autosampler vials for LC-MS analysis. Vitamin B species separation was performed using an Agilent 1290 infinity pump and XSelect HSS T3 column (150×2.1 mm, 3.5 μm; Waters Corporation, Milford Mass.). Mobile phase A was 0.1% heptaflurobutyric acid (HFBA, Thermo Fisher, Waltham Mass.) and 0.1% formic acid (FA, Thermo Fisher, Waltham Mass.) in water, mobile phase B was 0.1% HFBA and 0.1% FA in acetonitrile. The injection volume was 10 μL and LC gradient conditions were: 0 min: 0% B; 1 min: 0% B; 7 min: 25% B; 8 min: 25% B; 9 min: 100% B; 10.5 min: 100% B, with 4.5 min of re-equilibration time. MS detection was performed using an Agilent 6230 TOF accurate mass spectrometer with Dual JetStream source operating in positive ionization mode. MS parameters were: gas temp 250° C.; gas flow: 13 L/min; nebulizer pressure: 45 psig; sheath gas temp: 225° C.; sheath gas flow: 12 L/min; VCap: 3,500 V; Fragmentor: 175 V; Skimmer: 65 V; Octopole RF: 750 V. Active mass axis correction was performed using a second nebulizer and pyridine (80.049480) and roxithromycin (837.53185). Data was acquired from m/z 50-1700 at 1.5 spectra/sec. Accurate mass (±20 ppm) and retention time was confirmed relative to the pure standards. Data analysis was performed using MassHunter software (Agilent, Santa Clara Calif.).

[5] = system: Nras(G12D)/MLL-AF9 leukemic cells; assay: Metabolite rescue of isoniazid proliferative block in Nras(G12D)/MLL-AF9 leukemic cells; type: cell-based, mouse; settings: exogenous addition of metabolite with isoniazid, day 4 (FIG. 4D-4F)
Text: The average and SEM of fold of cell proliferation are shown. “*” represents p<0.05 of one-way ANOVA test, “**” represents p<0.01 of one-way ANOVA test, “***” represents p<0.001 of one-way ANOVA test. […] The average and SEM of fold of cell proliferation are shown. “*” represents p<0.05 of one-way ANOVA test, “**” represents p<0.01 of one-way ANOVA test, “***” represents p<0.001 of one-way ANOVA test. […] The average and SEM of fold of cell proliferation are shown. “*” represents p<0.05 of one-way ANOVA test, “**” represents p<0.01 of one-way ANOVA test, “***” represents p<0.001 of one-way ANOVA test.

bone marrow HSPCs = assay: Proliferation of bone marrow HSPCs cultured with compound; type: cell-based, mouse
Text: The average and STDEV of relative cell proliferation of 3 replicates are shown.
Bone marrow hematopoietic stem and progenitor cell isolation, culture, and compound treatment. For isolation of bone marrow cells, the bone marrow from the femur and tibia was flushed into ice cold PBS buffer. After red blood cell lysis with ammonium chloride (STEMCELL 07850, Vancouver Canada), the bone marrow cells were resuspended with PBS and filtered into a round bottom tube with cell strainer cap. The hematopoietic cells lineages were stained with biotin mouse lineage panel (BD Biosciences 559971, San Jose Calif.), then isolated by magnetic beads separation. For c-Kit positive cells, mouse hematopoietic cells were isolated from bone marrow using MACS CD117 isolation system. Purified bone marrow cells were cultured in RPMI medium supplemented with recombinant mouse SCF, IL-3, and IL-6. Control or Pdxk targeting sgRNAs or shRNAs were delivered by lentivirus. Spin infections were performed at 37 degree and 1500 RPM for 60 minutes. After spin infection, viral supernatants were substituted with leukemic cell culture medium. For compound treatment, isoniazid was added in culture at indicated concentrations.

mouse leukemic cells = assay: Proliferation of mouse leukemic cell lines cultured with compound; type: cell-based; settings: mouse leukemic cell lines with different genetic drivers, day 6 (FIG. 1I)
Experimental: as §1, with “Pyridoxin hydrochloride (Sigma, St Louis Mo.) was added back to VB6(−) medium to make the VB6 (+) medium used for leukemia and MEF culture. Control or gene targeting sgRNAs or shRNAs were delivered by lentivirus. Spin infections were performed at 37° C. and 1500 RPM for 60 minutes. After spin infection, viral supernatants were substituted with leukemic cell culture medium. For compound treatment, isoniazid was added in culture medium at indicated concentrations.” left out
For competition and cell proliferation experiments, mouse or human leukemic cells were infected with viruses encoding sgRNAs or shRNAs. […] GFP+ percentage or cell number was monitored during culture using guava flow cytometer. The absolute cell number was measured by using flow cytometry absolute count standard (Bangs Laboratories Inc., Fishers Ind.). The experimental results were analyzed by guavasoft software.

PLP = assay: Intracellular PLP levels by HPLC-MS in Nras(G12D)/MLL-AF9 leukemic cells cultured with isoniazid; type: cell-based, mouse; settings: day 5 of culture, HPLC-MS (FIG. 2E)
Experimental: The abundance of PLP was measured by high-performance liquid chromatography-mass spectrometry (HPLC-MS) and normalized to the level [^3D]-labeled PLP (internal control). The average and STDEV are shown. Western blot analysis was performed to measure the expression levels of PDXK protein.
as §2
In each case, 2 million cells were collected by centrifugation at 440×g, media was aspirated and 1004 of ice-cold 10% trichloroacetic acid with or without 100 ng/mL d3-pyridoxal (d3-PL), d3-pyridoxine (d3-PN), d3-pyridoxamine (d3-PM), d3-pyridoxal phosphate (d3-PLP) (IsoSciences LLC, Ambler Pa.) was added for metabolite extraction. For experiments involving isoniazid treatment, cells were washed once with PBS to remove residual drug and minimize post-lysis reactions between isoniazid and PLP, which was confirmed by monitoring the d3-PLP internal standard. […]

[6] = system: human HL60 (Human promyelocytic leukemia) cells; assay: Human HL60 cells cultured with myriocin; type: cell-based; settings: day 4 of culture (FIG. 33B)

Structure (SMILES): NOCC(=O)O [AOA, aminooxyacetic acid]
- viability of leukemic cells in vitro [1]: reduced the viability
- viability of leukemic cells in vitro (human leukemic cells [2]): reduced the viability
- animal survival [3]: extended survival
- leukemia disease progression (luciferase signal) [3]: significantly delayed leukemia disease maintenance

Structure (SMILES): CC[C@H](CO)Nc1nc(N(C)Cc2ccccc2)c2ncn(C(C)C)c2n1 [aftin-4]
- growth of human AML cells in vitro (human leukemic cells [4]): can suppress the growth; also recorded: inhibited the growth
- PDXK inhibition (PDXK): can nhibit PDXK
- intracellular levels of PLP (PDXK): reduced intracellular levels of PLP

Structure (SMILES): NC(=O)C[C@H](N)C(=O)O [asparagine]
- rescue of proliferative block produced by isoniazid [5]: partially rescued

Structure (SMILES): COCc1c(CO)cnc(C)c1O [gingkotoxin]
- growth of human AML cells in vitro (human leukemic cells [4]): suppressed tumor growth
- growth of human AML cells in vitro (human leukemic cells [4]; listed as ginkgotoxin): can suppress the growth
- PDXK inhibition (PDXK): can inhibit PDXK
- intracellular levels of PLP (PDXK): reduced intracellular levels of PLP
- intracellular levels of PLP (PDXK; listed as ginkgotoxin): reduce intracellular levels of PLP
- proliferation of bone marrow lineage negative HSPCs (bone marrow HSPCs; bone marrow lineage negative HSPCs, day 6 (FIG. 26A-26B)): little effect
- animal survival [3]: improved survival
- leukemia disease progression (luciferase signal) [3]: slowed down disease progression

Structure (SMILES): NNC(=O)c1ccncc1 [isoniazid]
- proliferation of mouse leukemic cells (mouse leukemic cells): blocked proliferation
- proliferation of human leukemic cells (human leukemic cells [4]; human leukemic cell lines, day 6 of culture (FIG. 7G, 25A-25C)): blocked proliferation
- proliferation of bone marrow HSPCs (bone marrow HSPCs): only a subtle reduction
- proliferation of bone marrow lineage negative HSPCs (bone marrow HSPCs): little effect
- animal survival [3]: produced a survival advantage
- leukemia disease progression (luciferase signal) [3]: delayed disease progression
- reduction of PLP in plasma and bone marrow cells ([3]; isoniazid 90 mg/kg intraperitoneally daily, day 12 post transplant, HPLC-MS (FIG. 13B)): ~25%
- intracellular PLP levels (PLP): reduced intracellular PLP levels

Structure (SMILES): CCCCCCC(=O)CCCCCC/C=C/C[C@@H](O)[C@H](O)[C@@](N)(CO)C(=O)O [myriocin]
- sensitivity of HL60 cells to treatment [6]: less sensitive
- viability of leukemic cells in vitro [1]: reduced the viability

Structure (SMILES): NCCCCN [putrescine]
- rescue of proliferative block produced by isoniazid [5]: partially rescued

Structure (SMILES): O=c1ccn([C@@H]2O[C@H](CO)[C@@H](O)[C@H]2O)c(=O)[nH]1 [uridine]
- rescue of proliferative block produced by isoniazid [5]: partially rescued

— patent publication US20200323898A1, “COMPOSITIONS AND METHODS FOR TREATING ACUTE MYELOID LEUKEMIA” (MEMORIAL SLOAN KETTERING CANCER CENTER, priority 2017, published 2020)
